# Measurements published in ChEMBL document CHEMBL1201862, “PubChem BioAssay data set” (2004).
#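 These data come from cells grown in 96-well plates and exposed to compound for 48 hours at five concentrations. Abbreviation: GI50, concentration required for 50% inhibition of growth.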 Active and inactive are the calls of the source. No stated cut-off is given here; in the data, active = GI50 up to about 1.1 µM and inactive = higher.
# Columns and labels:
# Assay in all cases: NCI anticancer screen, dose series, 48 h
# SK-MEL-28 = tested on: SK-MEL-28
# UO-31 = tested on: UO-31
# LOX IMVI = tested on: LOX IMVI
# UACC-62 = tested on: UACC-62
# SN12C = tested on: SN12C
# Malme-3M = tested on: Malme-3M
# HOP-62 = tested on: HOP-62
# OVCAR-4 = tested on: OVCAR-4
# KM12 = tested on: KM12
# U-251 = tested on: U-251
# NCI-H23 = tested on: NCI-H23
# MOLT-4 = tested on: MOLT-4
# NCI-H460 = tested on: NCI-H460
# SF-295 = tested on: SF-295
# MDA-MB-435 = tested on: MDA-MB-435
# SW-620 = tested on: SW-620
# HL-60 = tested on: HL-60
# 786-0 = tested on: 786-0
# NCI-H226 = tested on: NCI-H226
# SK-MEL-2 = tested on: SK-MEL-2
SMILES,GI50 (SK-MEL-28),GI50 (UO-31),GI50 (LOX IMVI),GI50 (UACC-62),GI50 (SN12C),GI50 (Malme-3M),GI50 (HOP-62),GI50 (OVCAR-4),GI50 (KM12),GI50 (U-251),GI50 (NCI-H23),GI50 (MOLT-4),GI50 (NCI-H460),GI50 (SF-295),GI50 (MDA-MB-435),GI50 (SW-620),GI50 (HL-60),GI50 (786-0),GI50 (NCI-H226),GI50 (SK-MEL-2)
CCSc1nc(N)c2c(-c3ccc(OC)c(OC)c3)c3c(nc2n1)CCCC3,> 100 µM (inactive),> 100 µM (inactive),> 100 µM (inactive),> 100 µM (inactive),> 100 µM (inactive),> 100 µM (inactive),> 100 µM (inactive),> 100 µM (inactive),> 100 µM (inactive),> 100 µM (inactive),> 100 µM (inactive),> 100 µM (inactive),> 100 µM (inactive),> 100 µM (inactive),> 100 µM (inactive),> 100 µM (inactive),> 100 µM (inactive),,,
O=C1C2Cc3ccccc3CN2C(=O)N1CN1CCCCC1 (stereo not given),> 100 µM (inactive),> 100 µM (inactive),> 100 µM (inactive),78 µM (inactive),> 100 µM (inactive),> 100 µM (inactive),> 100 µM (inactive),> 100 µM (inactive),> 100 µM (inactive),> 100 µM (inactive),> 100 µM (inactive),> 100 µM (inactive),> 100 µM (inactive),> 100 µM (inactive),,55.6 µM (inactive),26.6 µM (inactive),> 100 µM (inactive),> 100 µM (inactive),> 100 µM (inactive)
C=C/C(C)=C/[C@H](C)C(=O)C[C@H](O)CC1CC(=O)NC(=O)C1,28.6 µM (inactive),48.9 µM (inactive),43.1 µM (inactive),37.2 µM (inactive),25.5 µM (inactive),16 µM (inactive),19.2 µM (inactive),19.6 µM (inactive),32.7 µM (inactive),34.5 µM (inactive),36.9 µM (inactive),19.8 µM (inactive),37.7 µM (inactive),36.1 µM (inactive),,31.5 µM (inactive),20.3 µM (inactive),,41 µM (inactive),28.9 µM (inactive)
COc1cc2cc(C(=O)N3CC(CCl)c4c3cc(N(C)C)c3ccccc43)[nH]c2c(OC)c1OC (stereo not given),0.0483 µM (active),< 0.01 µM (active),< 0.01 µM (active),< 0.01 µM (active),< 0.01 µM (active),0.0321 µM (active),< 0.01 µM (active),0.0163 µM (active),0.0117 µM (active),< 0.01 µM (active),< 0.01 µM (active),< 0.01 µM (active),< 0.01 µM (active),< 0.01 µM (active),0.0146 µM (active),0.0107 µM (active),,< 0.01 µM (active),0.0132 µM (active),< 0.01 µM (active)
COc1ccc2cc1Oc1ccc(cc1)C[C@H]1c3cc(c(OC)cc3CCN1C)Oc1c(O)c(OC)cc3c1[C@H](C2)N(C)CC3 [FANGCHINOLINE],21.8 µM (inactive),25.5 µM (inactive),5.3 µM (inactive),20.7 µM (inactive),38.8 µM (inactive),30.7 µM (inactive),37.6 µM (inactive),26.5 µM (inactive),16.8 µM (inactive),27.2 µM (inactive),40 µM (inactive),11.7 µM (inactive),21.8 µM (inactive),16.9 µM (inactive),,15 µM (inactive),14 µM (inactive),,39.9 µM (inactive),26.5 µM (inactive)
CN(C(=O)c1ccc(OCCCC(=O)O)c(Cl)c1Cl)C1CCCC1,> 100 µM (inactive),> 60 µM (inactive),> 100 µM (inactive),> 100 µM (inactive),> 100 µM (inactive),> 100 µM (inactive),> 100 µM (inactive),> 100 µM (inactive),> 100 µM (inactive),> 100 µM (inactive),> 76.7 µM (inactive),> 100 µM (inactive),> 95.3 µM (inactive),> 72.6 µM (inactive),,> 100 µM (inactive),> 72.8 µM (inactive),,83.8 µM (inactive),> 79.8 µM (inactive)
O=P1(N2CCOCC2)OCCO1,> 100 µM (inactive),> 100 µM (inactive),> 100 µM (inactive),> 100 µM (inactive),> 100 µM (inactive),> 100 µM (inactive),,> 100 µM (inactive),> 100 µM (inactive),> 100 µM (inactive),> 100 µM (inactive),> 100 µM (inactive),> 100 µM (inactive),> 100 µM (inactive),> 100 µM (inactive),> 100 µM (inactive),> 100 µM (inactive),> 100 µM (inactive),,
CCOC(=O)c1ccc(N[C@@H]2c3cc4c(cc3C(c3cc(OC)c(O)c(OC)c3)[C@H]3C(=O)OCC32)OCO4)cc1 (stereo not given in full),2.55 µM (inactive),0.769 µM (active),,0.521 µM (active),0.396 µM (active),0.568 µM (active),,4.21 µM (inactive),1.5 µM (inactive),0.249 µM (active),0.339 µM (active),0.0142 µM (active),0.0255 µM (active),,3.07 µM (inactive),0.475 µM (active),0.0912 µM (active),,0.284 µM (active),2.63 µM (inactive)
COc1cc(C)cc2c1C(=O)C(NC(C)=O)=CC2=O,> 100 µM (inactive),> 100 µM (inactive),,58.7 µM (inactive),> 100 µM (inactive),> 100 µM (inactive),> 100 µM (inactive),24.6 µM (inactive),> 100 µM (inactive),> 100 µM (inactive),> 100 µM (inactive),28.2 µM (inactive),> 100 µM (inactive),> 100 µM (inactive),17.3 µM (inactive),> 100 µM (inactive),23.3 µM (inactive),> 100 µM (inactive),> 100 µM (inactive),> 100 µM (inactive)
ClCc1nnc2n1-c1ccc(Cl)cc1SC2,4.74 µM (inactive),15.1 µM (inactive),1.49 µM (inactive),2.69 µM (inactive),7.26 µM (inactive),3.88 µM (inactive),6.25 µM (inactive),3.89 µM (inactive),4.35 µM (inactive),6.59 µM (inactive),2.35 µM (inactive),1.45 µM (inactive),3.66 µM (inactive),2.21 µM (inactive),,4.55 µM (inactive),1.56 µM (inactive),,1.94 µM (inactive),2.81 µM (inactive)
COc1cc(C2c3cc4c(cc3[C@@H](Nc3cccc(C(C)=O)c3)C3COC(=O)[C@H]23)OCO4)cc(OC)c1O (stereo not given in full),3.01 µM (inactive),0.291 µM (active),0.39 µM (active),0.233 µM (active),0.405 µM (active),1.28 µM (inactive),0.122 µM (active),6.17 µM (inactive),1.59 µM (inactive),0.245 µM (active),0.264 µM (active),< 0.01 µM (active),< 0.01 µM (active),0.126 µM (active),,0.2 µM (active),< 0.0327 µM (active),,0.236 µM (active),2.65 µM (inactive)
O=C(O)c1ccccc1C(=O)c1ccco1,> 100 µM (inactive),> 100 µM (inactive),> 100 µM (inactive),> 100 µM (inactive),> 100 µM (inactive),> 100 µM (inactive),> 100 µM (inactive),> 100 µM (inactive),> 100 µM (inactive),> 100 µM (inactive),> 100 µM (inactive),> 100 µM (inactive),> 100 µM (inactive),> 100 µM (inactive),,> 100 µM (inactive),> 100 µM (inactive),> 100 µM (inactive),> 100 µM (inactive),> 100 µM (inactive)
N/C(=N\O)N/N=C\c1cc([N+](=O)[O-])cc([N+](=O)[O-])c1O,> 100 µM (inactive),4.67 µM (inactive),2.99 µM (inactive),1.58 µM (inactive),24.2 µM (inactive),> 100 µM (inactive),4.22 µM (inactive),> 96.2 µM (inactive),2.94 µM (inactive),10.5 µM (inactive),28.8 µM (inactive),10.2 µM (inactive),2.76 µM (inactive),4.16 µM (inactive),,13.9 µM (inactive),3.36 µM (inactive),,29.4 µM (inactive),> 100 µM (inactive)
COc1ccc(Sc2ccccc2N)cc1,43.4 µM (inactive),21.8 µM (inactive),64 µM (inactive),71.4 µM (inactive),33.1 µM (inactive),57.8 µM (inactive),65.9 µM (inactive),34.8 µM (inactive),41.3 µM (inactive),19 µM (inactive),43.6 µM (inactive),26.9 µM (inactive),52.5 µM (inactive),39.3 µM (inactive),,57.1 µM (inactive),18.8 µM (inactive),,22.7 µM (inactive),> 100 µM (inactive)
CCCCCCCCCCCC1=C(O)C(=O)C=C(O)C1=O [EMBELIN],6.67 µM (inactive),5.56 µM (inactive),7.35 µM (inactive),4.11 µM (inactive),4.73 µM (inactive),5.81 µM (inactive),5.56 µM (inactive),10 µM (inactive),6.38 µM (inactive),5.02 µM (inactive),7.05 µM (inactive),6.35 µM (inactive),2.88 µM (inactive),6.03 µM (inactive),,18.3 µM (inactive),3.95 µM (inactive),,5.25 µM (inactive),5.11 µM (inactive)
